Source: patent publication EP4617278A1, “NUCLEOTIDE ANALOG, AND COMPOSITION AND USE THEREOF” (priority 2022, dated 2024)

Test system: SARS-CoV-2 replicon
Format: cell-based
Conditions: read-out: SARS-CoV-2 Replicon (Huh-7cell) EC50

| Compound | EC50 [nM] |
| --- | --- |
| CC(C)OC(=O)OCO[P@@](=O)(N[C@@H](C)C(=O)OC(C)C)OC[C@H]1O[C@@](C#N)(c2ccc3c(N)ncnn23)[C@H](OC(=O)C(C)(C)C)[C@@H]1OC(=O)C(C)(C)C [Compound 4a, (2R,3R,4R,5R)-2-(4-aminopyrrolo[2,1-f][1,2,4]triazin-7-yl)-2-cyano-5-((((R)-(((S)-1-isopropoxy-1-oxopropan-2-yl)amino)(((isopropoxycarbonyl)oxy)methoxy)phosphoryl)oxy)methyl)tetrahydrofuran-3,4-diyl bis(2,2-dimethylpropionate)] | 50 to 500 |
| CCC(CC)COC(=O)[C@H](C)N[P@](=O)(OCc1ccccc1C)OC[C@H]1O[C@@](C#N)(c2ccc3c(N)ncnn23)[C@H](OC(=O)C(C)C)[C@@H]1OC(=O)C(C)C [Compound 16a, (2R,3R,4R,5R)-2-(4-aminopyrrolo[2,1-f][1,2,4]triazin-7-yl)-2-cyano-5-((((S)-(((S)-1-(2-ethylbutoxy)-1-oxopropan-2-yl)amino)((2-methylbenzyl)oxy)phosphoryl)oxy)methyl)tetrahydrofuran-3,4-diyl bis(2-methylpropionate)] | 50 to 500 |
| CC(C)OC(=O)OCO[P@@](=O)(N[C@@H](C)C(=O)OC1CCC1)OC[C@H]1O[C@@](C#N)(c2ccc3c(N)ncnn23)[C@H](OC(=O)C(C)C)[C@@H]1OC(=O)C(C)C [Compound 13a, (2R,3R,4R,5R)-2-(4-aminopyrrolo[2,1-f][1,2,4]triazin-7-yl)-2-cyano-5-((((R)-(((S)-1-cyclobutoxy-1-oxopropan-2-yl)amino)(((isopropoxycarbonyl)oxy)methoxy)phosphoryl)oxy)methyl)tetrahydrofuran-3,4-diyl bis(2-methylpropionate)] | < 5 |
| CCC(=O)O[C@H]1[C@@H](OC(=O)CC)[C@](C#N)(c2ccc3c(N)ncnn23)O[C@@H]1CO[P@](=O)(OCOC(=O)OC(C)C)Oc1ccc(C(C)(C)C)cc1 [Compound 23a, (2R,3R,4R,5R)-2-(4-aminopyrrolo[2,1-f][1,2,4]triazin-7-yl)-5-((((S)-(4-tert-butylphenoxy)(((isopropoxycarbonyl)oxy)methoxy)phosphoryl)oxy)methyl)-2-cyanotetrahydrofuran-3,4-diyl dipropionate] | < 5 |
| COC(C)(C)COC(=O)[C@H](Cc1ccccc1)N[P@](=O)(OC[C@H]1O[C@@](C#N)(c2ccc3c(N)ncnn23)[C@H](OC(=O)C(C)C)[C@@H]1OC(=O)C(C)C)Oc1ccccc1 [Compound 64b, (2R,3R,4R,5R)-2-(4-aminopyrrolo[2,1-f][1,2,4]triazin-7-yl)-2-cyano-5-((((S)-(((S)-1-(2-methoxy-2-methylpropoxy)-1-oxo-3-phenylpropan-2-yl)amino)(phenoxy)phosphoryl)oxy)methyl)tetrahydrofuran-3,4-diyl bis(2-methylpropionate)] | < 5 |
| CC(C)OC(=O)OCOP(=O)(OCOC(=O)OC(C)C)OC[C@H]1O[C@@](C#N)(c2ccc3c(N)ncnn23)[C@H](OC(=O)C(C)C)[C@@H]1OC(=O)C(C)C [Compound 19, (2R,3R,4R,5R)-2-(4-aminopyrrolo[2,1-f][1,2,4]triazin-7-yl)-5-((((bis(((isopropoxycarbonyl)oxy)methoxy))phosphoryl)oxy)methyl)-2-cyanotetrahydrofuran-3,4-diyl bis(2-methylpropionate)] | < 5 |
| CC(C)OC(=O)OCO[P@@](=O)(OC[C@H]1O[C@@](C#N)(c2ccc3c(N)ncnn23)[C@H](OC(=O)C(C)C)[C@@H]1OC(=O)C(C)C)Oc1ccc(C(C)(C)C)cc1 [Compound 24a, (2R,3R,4R,5R)-2-(4-aminopyrrolo[2,1-f][1,2,4]triazin-7-yl)-5-((((S)-(4-tert-butylphenoxy)(((isopropoxycarbonyl)oxy)methoxy)phosphoryl)oxy)methyl)-2-cyanotetrahydrofuran-3,4-diyl bis(2-methylpropionate)] | < 5 |
| CC(C)OC(=O)OCO[P@](=O)(OC[C@H]1O[C@@](C#N)(c2ccc3c(N)ncnn23)[C@H](OC(=O)C(C)C)[C@@H]1OC(=O)C(C)C)Oc1ccc(C(C)(C)C)cc1 [Compound 24b] | 10 to 50 |
| CCC(=O)O[C@H]1[C@@H](OC(=O)CC)[C@](C#N)(c2ccc3c(N)ncnn23)O[C@@H]1CO[P@@](=O)(OCOC(=O)OC(C)C)Oc1ccc(C(C)(C)C)cc1 [Compound 23b, ((2R,3R,4R,5R)-2-(4-aminopyrrolo[2,1-f][1,2,4]triazin-7-yl)-5-((((R)-(4-tert-butylphenoxy)(((isopropoxycarbonyl)oxy)methoxy)phosphoryl)oxy)methyl)-2-cyanotetrahydrofuran-3,4-diyl dipropionate] | 5 to 10 |
| CCCCCCCCCCCCCCCCOCCCOP(=O)(OCOC(=O)OC(C)C)OC[C@H]1O[C@@](C#N)(c2ccc3c(N)ncnn23)[C@H](OC(=O)C(C)C)[C@@H]1OC(=O)C(C)C (mixture of isomers) [Compound 36, (2R,3R,4R,5R)-2-(4-aminopyrrolo[2,1-f][1,2,4]triazin-7-yl)-2-cyano-5-((((3-(hexadecyloxy)propoxy)(((isopropoxycarbonyl)oxy)methoxy)phosphoryl)oxy)methyl)tetr ahydrofuran-3,4-diyl bis(2-methylpropionate)] | 50 to 500 |
| CC(C)C(=O)O[C@H]1[C@@H](OC(=O)C(C)C)[C@](C#N)(c2ccc3c(N)ncnn23)O[C@@H]1COP(=O)(OCCSC(=O)C(C)(C)C)Oc1ccc(C(C)(C)C)cc1 (mixture of isomers) [Compound 27, (2R,3R,4R,5R)-2-(4-aminopyrrolo[2,1-f][1,2,4]triazin-7-yl)-5-((((4-tert-butylphenoxy)(2-(pivaloylthio)ethoxy)phosphoryl)oxy)methyl)-2-cyanotetrahydrofuran-3,4-diyl bis(2-methylpropionate)] | 10 to 50 |
| (2R,3R,4R,5R)-2-(4-aminopyrrolo[2,1-f][1,2,4]triazin-7-yl)-5-((((bis(((isopropoxycarbonyl)oxy)methoxy))phosphoryl)oxy)methyl)-2-cyanotetrahydrofuran-3,4-diyldiisopropyl bis(carbonate) [Compound 28] | 10 to 50 |
| CC(C)C(=O)OCOP(=O)(OCOC(=O)C(C)C)OC[C@H]1O[C@@](C#N)(c2ccc3c(N)ncnn23)[C@H](OC(=O)C(C)C)[C@@H]1OC(=O)C(C)C [Compound 45] | ≤ 5 |
| CCC(CC)COC(=O)C1(N[P@@](=O)(OC[C@H]2O[C@@](C#N)(c3ccc4c(N)ncnn34)[C@H](OC(=O)C(C)C)[C@@H]2OC(=O)C(C)C)Oc2ccccc2)CCC1 [Compound 40a, (2R,3R,4R,5R)-2-(4-aminopyrrolo[2,1-f][1,2,4]triazin-7-yl)-2-cyano-5-((((R)-((1-((2-ethylbutoxy)carbonyl)cyclobutyl)amino)(phenoxy)phosphoryl)oxy)methyl)tetrahydrofura n-3,4-diyl bis(2-methylpropionate)] | 10 to 50 |
| CCCCCOC(=O)C[C@H](N[P@](=O)(OC[C@H]1O[C@@](C#N)(c2ccc3c(N)ncnn23)[C@H](OC(=O)C(C)C)[C@@H]1OC(=O)C(C)C)Oc1ccc(C(C)(C)C)cc1)C(=O)OCCCCC [Compound 39b, (2R,3R,4R,5R)-2-(4-aminopyrrolo[2,1-f][1,2,4]triazin-7-yl)-2-cyano-5-((((S)-(((S)-1,4-dipentyloxy-1,4-dioxobutan-2-yl)amino)(4-tert-butylphenoxy)phosphoryl)oxy)methyl)tetrahydrofuran-3,4-diyl bis(2-methylpropionate)] | 10 to 50 |
| CCC(=O)O[C@H]1[C@@H](OC(=O)CC)[C@](C#N)(c2ccc3c(N)ncnn23)O[C@@H]1CO[P@@](=O)(N[C@@H](C)C(=O)OC(C)C)OCOC(=O)OC(C)C [Compound 2b, (2R,3R,4R,5R)-2-(4-aminopyrrolo[2,1-f][1,2,4]triazin-7-yl)-2-cyano-5-((((S)-(((S)-1-isopropoxy-1-oxopropan-2-yl)amino)(((isopropoxycarbonyl)oxy)methoxy)phosphoryl)oxy)methyl)tetrahydrofuran-3,4-diyl dipropionate] | ≤ 5 |
| (2R,3R,4R,5R)-2-(4-aminopyrrolo[2,1-f][1,2,4]triazin-7-yl)-2-cyano-5-((((R)-(((S)-1-(2-ethylbutoxy)-1-oxopropan-2-yl)amino)(((isopropoxycarbonyl)oxy)methoxy)phosphoryl)oxy)methyl)tetrahydrofuran-3,4-diyl diacetate [Compound 5a] | 50 to 500 |
| CCCCC/C=C\C/C=C\CCCCCCCCOC(=O)[C@H](C)N[P@@](=O)(OCOC(=O)OC(C)C)OC[C@H]1O[C@@](C#N)(c2ccc3c(N)ncnn23)[C@H](OC(=O)C(C)C)[C@@H]1OC(=O)C(C)C [Compound 52b, (2R,3R,4R,5R)-2-(4-aminopyrrolo[2,1-f][1,2,4]triazin-7-yl)-2-cyano-5-((((S)-(((isopropoxycarbonyl)oxy)methoxy)(((S)-1-(((9Z,12Z)-octadeca-9,12-dien-1-yl)oxy)-1-oxopropan-2-yl)amino)phosphoryl)oxy)methyl)tetrahydrofuran-3,4-diyl bis(2-methylpropionate)] | 50 to 500 |
| CCC(CC)COC(=O)[C@H](Cc1ccccc1)N[P@@](=O)(OC[C@H]1O[C@@](C#N)(c2ccc3c(N)ncnn23)[C@H](OC(=O)C(C)C)[C@@H]1OC(=O)C(C)C)Oc1ccc(C(C)(C)C)cc1 [Compound 53a, (2R,3R,4R,5R)-2-(4-aminopyrrolo[2,1-f][1,2,4]triazin-7-yl)-2-cyano-5-((((((S)-1-(2-ethylbutoxy)-1-oxo-3-phenylpropan-2-yl)amino)((R)-4-tert-butylphenoxy)phosphoryl)oxy)methyl)tetrahydrofuran-3,4-diyl bis(2-methylpropionate)] | 50 to 500 |
| CCC(CC)COC(=O)[C@H](C)N[P@@](=O)(OCOC(=O)C(C)(C)C)OC[C@H]1O[C@@](C#N)(c2ccc3c(N)ncnn23)[C@H](OC(=O)C(C)(C)C)[C@@H]1OC(=O)C(C)(C)C [Compound 12b, (2R,3R,4R,5R)-2-(4-aminopyrrolo[2,1-f][1,2,4]triazin-7-yl)-2-cyano-5-((((S)-(((S)-1-(2-ethylbutoxy)-1-oxopropan-2-yl)amino)((pivaloyloxy)methoxy)phosphoryl)oxy)methyl)tetrahydrofuran-3,4-diyl bis(2,2-dimethylpropionate)] | 50 to 500 |
